Experimental data published in patent US11292767B2, “Heterocyclic inhibitors of MCT4” (Vettore, LLC, priority 2016, dated 2022).

Experiments:
MCT1 = MCT1 (Homo sapiens (Human), UniProt P53985); assay: Assay 4: MCT1-mediated lactate transport in BT20 breast cancer cells; assay type: cell-based; conditions: lactate transport (Table 27)
Experimental: Preparing BCECF-Loaded Cells
10 µL of a 30 mM DMSO stock of BCECF-AM ester (Life Technologies) is added and the cells are incubated at 37° C. for 5 min. The cells are pelleted (300 g, 5 min), washed once with 1 mL Tyrode's Solution, pH 7.4, re-pelleted (300 g, 5 min), and resuspended in 1 mL Tyrode's Solution, pH 7.4.
Assay 4: MCT1-Mediated Lactate Transport in BT20 Breast Cancer Cells.
Preparation of BCECF loaded cells are as described for Assay 1. Lactate transport assay is as described for Assay 1, except 10 mM L-lactate (rather than 50 mM) is added.

[1] = Metabolic stability in mouse liver microsomes (in vitro t1/2); assay type: in vitro ADME; conditions: mouse liver microsomes 0.5 mg/mL, 2 μM compound; for Mouse microsome % 60 min: % remaining at 60 min
Experimental: (§1) Metabolic Stability Assays The following are assays that may be used to evaluate the metabolic stability of compounds of Formula (I) in human, rat, or mouse microsomes. The assays follow a common procedure recited below. 1. […] Two separated experiments were performed as follows. a) With NADPH: 10 μL of 20 mg/mL liver microsomes and 40 μL of 10 mM NADPH were added to the incubations. […] The final concentration of microsomes was 0.5 mg/mL. 3. The reaction was started with the addition of 4 μL of 200 μM control compound or test compound solutions. Verapamil was used as positive control in this study. The final concentration of test compound or control compound was 2 μM. 4. Aliquots of 50 μL were taken from the reaction solution at 0, 15, 30, 45 and 60 min. […] Samples were centrifuged at 3,220 g for 40 minutes. A 90 μL aliquot of the supernatant was mixed with 90 μL of ultra-pure H2O and then used for LC-MS/MS analysis. 5. Data analysis. All calculations were carried out using Microsoft Excel. Peak areas were determined from extracted ion chromatograms. The slope value, k, was determined by linear regression of the natural logarithm of the remaining percentage of the parent drug vs. incubation time curve. The in vitro half-life (in vitro t1/2) was determined from the slope value: in vitro t1/2=−(0.693)/k.

[2] = Metabolic stability in human liver microsomes (in vitro t1/2); assay type: in vitro ADME; conditions: human liver microsomes 0.5 mg/mL, 2 μM compound; for Human microsome % 60 min: % remaining at 60 min
Experimental: as §1

[3] = Metabolic stability in rat liver microsomes (in vitro t1/2); assay type: in vitro ADME; conditions: rat liver microsomes 0.5 mg/mL, 2 μM compound; for Rat microsome % 60 min: % remaining at 60 min
Experimental: as §1

[4] = Pharmacokinetic assay in mouse (IV 3 mg/kg, PO 10 mg/kg); assay type: in vivo; conditions: male, CD1, mouse, plasma, read-out: Mouse F (%)
Text: (§2) Pharmacokinetic Assays in Mouse and Rat
(§3) The following are assays that may be used to evaluate the pharmacokinetic properties of Formula (I) in mouse or rat. The assays follow a common procedure recited below.
(§4) 1. […] For PO (oral gavage), DMSO/PEG400 (10:90). Formulations freshly prepared on the day of dosing or prior to dosing. Storage at room temperature.
(§5) 2. Test Species: For Mouse: Male CD1 strain, approximately 6-8 weeks in age, approximately 20-30 g. For Rat: Male Sprague-Dawley strain, approximately 6-8 weeks in age, approximately 200-300 g.
(§6) 3. Dose Level: For IV, 3 mg/kg. For PO, 10 mg/kg.
(§7) 4. Number of animals: 3 per assay.
(§8) 5. PK time points: For IV (plasma): 5 min, 15 min, 1, 2, 4, 6, 8, 24 h post dose. For PO (plasma): 15 min, 30 min, 1, 2, 4, 6, 8, 24 h post dose.
(§9) 6. Blood Sample Collection and Processing. Blood was collected (˜0.2 mL per time point) from jugular vein. Blood of each sample was transferred into plastic micro centrifuge tubes containing anticoagulant of EDTA-K2. Blood samples were centrifuged at 2,000 g for 5 minutes at 4° C. to obtain plasma.
(§10) 7. Samples Analysis: Plasma samples were analyzed using LC/MS/MS method, and pharmacokinetic parameters (half-life: t1/2; oral bioavailability: F; volume of distribution: Vss).

[5] = Pharmacokinetic assay in rat (IV 3 mg/kg, PO 10 mg/kg); assay type: in vivo; conditions: male, Sprague-Dawley, plasma, read-out: Rat F (%)
Text: as §2, §3, §4, §5, §6, §7, §8, §9, §10

CFA-induced arthritis [6] = assay: Adjuvant-induced arthritis model in rat: Mechanical Allodynia test (MA); assay type: in vivo; conditions: SD rat, PO 3 days post CFA, compared to dexamethasone
CFA-induced arthritis [7] = assay: Adjuvant-induced arthritis model in rat: Difference of Weight Bearing test (DWB); assay type: in vivo; conditions: SD rat, PO 3 days post CFA, compared to dexamethasone

MCT1, sequence (P53985 whole entry): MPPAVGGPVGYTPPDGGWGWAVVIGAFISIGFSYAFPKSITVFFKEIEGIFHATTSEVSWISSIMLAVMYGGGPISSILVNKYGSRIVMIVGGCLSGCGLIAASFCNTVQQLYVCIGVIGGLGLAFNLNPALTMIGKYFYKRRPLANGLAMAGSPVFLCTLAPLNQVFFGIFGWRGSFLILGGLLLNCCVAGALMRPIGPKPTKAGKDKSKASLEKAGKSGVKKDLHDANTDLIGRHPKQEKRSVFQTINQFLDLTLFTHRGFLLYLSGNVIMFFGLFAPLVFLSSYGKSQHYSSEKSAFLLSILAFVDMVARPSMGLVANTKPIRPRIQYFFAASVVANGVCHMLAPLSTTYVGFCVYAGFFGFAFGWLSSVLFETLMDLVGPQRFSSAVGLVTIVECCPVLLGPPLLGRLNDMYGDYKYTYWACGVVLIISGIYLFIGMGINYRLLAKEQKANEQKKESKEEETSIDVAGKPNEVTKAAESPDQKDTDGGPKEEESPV
MCT1, sequence (P35613 140-385 partner): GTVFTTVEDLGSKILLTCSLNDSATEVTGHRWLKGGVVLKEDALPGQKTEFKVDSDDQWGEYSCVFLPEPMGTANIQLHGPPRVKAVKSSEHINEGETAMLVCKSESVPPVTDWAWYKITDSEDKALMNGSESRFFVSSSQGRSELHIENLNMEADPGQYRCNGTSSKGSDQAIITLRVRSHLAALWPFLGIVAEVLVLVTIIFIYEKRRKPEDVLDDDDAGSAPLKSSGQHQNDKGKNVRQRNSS

SMILES | IC50 (MCT1) | bioavailability [4] | bioavailability [5] | other results
CC(C)(OCc1cc(-c2cccc(OCC(F)(F)F)c2)n(Cc2ccccc2Cl)n1)C(=O)O [Example 43, 2-([1-[(2-Chlorophenyl)methyl]-5-[3-(2,2,2-trifluoroethoxy)phenyl]1H-pyrazol-3-yl]methoxy)-2-methylpropanoic acid] | > 33000 nM |  |  | 
CC(C)(OCc1cc(-c2cscn2)n(Cc2ccccc2Cl)n1)C(=O)O [Example 47, 2-([1-[(2-Chlorophenyl)methyl]-5-(1,3-thiazol-4-yl)-1H-pyrazol-3-yl]methoxy)-2-methylpropionic acid] | > 100000 nM |  |  | 
COc1cccc(-c2cc(COC(C)(C)C(=O)O)nn2Cc2ccccc2)c1 [Example 53, 2-([1-benzyl-5-(3-methoxyphenyl)-1H-pyrazol-3-yl]methoxy)-2-methyl-propanoic acid] | > 100000 nM |  |  | 
COc1cccc(-c2cc(COC(C)(C)C(=O)O)nn2-c2ccccc2Cl)c1 [Example 57, 2-([1-(2-chlorophenyl)-5-(3-methoxyphenyl)-1H-pyrazol-3-yl]methoxy)-2-methylpropanoic acid] | > 133000 nM |  |  | Mouse microsome % 60 min [1]: 100%; Human microsome % 60 min [2]: 80%
CC(C)C(=O)Nc1cccc(-c2cc(COC(C)(C)C(=O)O)nn2Cc2ccccc2Cl)c1 [Example 69, 2-([1-[(2-Chlorophenyl)methyl]-5-[3-(2-methylpropanamido)phenyl]-1H-pyrazol-3-yl]methoxy)-2-methylpropanoic acid] | > 100000 nM |  |  | 
CC(C)(OCc1cc(-c2cccc(S(C)(=O)=O)c2)n(Cc2ccccc2Cl)n1)C(=O)O [Example 70, 2-([1-[(2-Chlorophenyl)methyl]-5-(3-methanesulfonylphenyl)-1H-pyrazol-3-yl]methoxy)-2-methylpropanoic acid] | > 100000 nM |  |  | 
CC(C)CNc1cccc(-c2cc(COC(C)(C)C(=O)O)nn2Cc2ccccc2Cl)c1 [Example 73, 2-([1-[(2-chlorophenyl)methyl]-5-[3-[(2-methylpropyl)amino]phenyl]-1H-pyrazol-3-yl]methoxy)-2-methyl-propanoic acid] | > 11000 nM |  |  | 
CC(C)NC(=O)c1cccc(-c2cc(COC(C)(C)C(=O)O)nn2Cc2ccccc2Cl)c1 [Example 74, 2-([1-[(2-Chlorophenyl)methyl]-5-[3-[(propan-2-yl)carbamoyl]phenyl]-1H-pyrazol-3-yl]methoxy)-2-methyl-propanoic acid] | > 100000 nM |  |  | 
CC(C)(OCc1cc(Nc2ccccc2)n(Cc2ccccc2Cl)n1)C(=O)O [Example 75, 2-([1-[(2-chlorophenyl)methyl]-5-(phenylamino)-1H-pyrazol-3-yl]methoxy)-2-methylpropanoic Acid] | > 100000 nM |  |  | 
CC(C)(OCc1cc(-c2cccc(OC3CCC3)c2)n(-c2ccccc2N2CCC2)n1)C(=O)O [Example 260, 2-([1-[2-(Azetidin-1-yl)phenyl]-5-(3-cyclobutoxyphenyl)-1H-pyrazol-3-yl]methoxy)-2-methylpropanoic acid] |  | 86% | 85% | Mechanical Allodynia (Von Frey), Minimal Efficacious Dose (CFA-induced arthritis [6]): 1 mg/kg; Difference in Weight Bearing, Minimal Efficacious Dose (CFA-induced arthritis [7]): 1 mg/kg

Now from value to molecule, other results behind:

IC50 (MCT1) | bioavailability [4] | bioavailability [5] | SMILES | other results
 | 24% | 72% | Cn1ncc2cccc(-n3nc(COC(C)(C)C(=O)O)cc3-c3cccc(OCC(C)(C)C)c3)c21 [Example 167, 2-([5-[3-(2,2-dimethylpropoxy)phenyl]-1-(1-methyl-1H-indazol-7-yl)-1H-pyrazol-3-yl]methoxy)-2-methyl-propanoic acid] | Rat microsome % 60 min [3]: 72%; Mouse microsome % 60 min [1]: 97%; Human microsome % 60 min [2]: 84%
 | 57% | 55% | CCOc1ccccc1Cn1nc(COC(C)(C)C(=O)O)cc1-c1cc(OC)cc(OC)c1 [Example 211, 2-([5-(3,5-Dimethoxyphenyl)-1-[(2-ethoxyphenyl)methyl]-1H-pyrazol-3-yl]-methoxy)-2-methylpropanoic acid] | Rat microsome % 60 min [3]: 57%; Mouse microsome % 60 min [1]: 43%; Human microsome % 60 min [2]: 78%
 | 100% | 29% | CCn1ncc2ccc(-c3cc(CO[C@](C)(CC)C(=O)O)nn3Cc3ccccc3Cl)cc21 [Example 220, (2R)-2-([1-[(2-chlorophenyl)methyl]-5-(1-ethyl-1H-indazol-6-yl)-1H-pyrazol-3-yl]methoxy)-2-methylbutanoic acid] | Mechanical Allodynia (Von Frey), Minimal Efficacious Dose (CFA-induced arthritis [6]): 3 mg/kg; Rat microsome % 60 min [3]: 86%; Difference in Weight Bearing, Minimal Efficacious Dose (CFA-induced arthritis [7]): 3 mg/kg; Human microsome t1/2, min ([2]; in vitro t1/2): ∞
 | 100% | 94% | CCn1ncc2ccc(-c3cc(COC(C)(C)C(=O)O)nn3-c3ccccc3N3CCC3)cc21 [Example 228, 2-([1-[2-(Azetidin-1-yl)phenyl]-5-(1-ethyl-1H-indazol-6-yl)-1H-pyrazol-3-yl]methoxy)-2-methylpropanoic acid] | Rat microsome % 60 min [3]: 91%; Mouse microsome % 60 min [1]: 96%; Human microsome % 60 min [2]: 71%
 | 76% | 76% | CCn1ncc2ccc(-c3cc(CO[C@@](C)(CC)C(=O)O)nn3Cc3ccccc3Cl)cc21 [Example 257, (S)-2-((1-(2-chlorobenzyl)-5-(1-ethyl-1H-indazol-6-yl)-1H-pyrazol-3-yl)methoxy)-2-methylbutanoic acid] | Rat microsome t1/2, min ([3]; in vitro t1/2): ∞; Mouse microsome t1/2, min ([1]; in vitro t1/2): ∞; Human microsome % 60 min [2]: 96%
 | 100% | 100% | CC[C@@](C)(OCc1cc(-c2cccc(OC3CC3)c2)n(-c2ccccc2N2CCC2)n1)C(=O)O [Example 266] | Mechanical Allodynia (Von Frey), Minimal Efficacious Dose (CFA-induced arthritis [6]): 3 mg/kg; Difference in Weight Bearing, Minimal Efficacious Dose (CFA-induced arthritis [7]): 3 mg/kg
 | 64% | 54% | CCCn1ncc2ccc(-c3cc(CO[C@](C)(CC)C(=O)O)nn3-c3ccccc3N3CCC3)cc21 [Example 267, (2R)-2-([1-[2-(azetidin-1-yl)phenyl]-5-(1-propyl-1H-indazol-6-yl)-1H-pyrazol-3-yl]methoxy)-2-methylbutanoic acid] | Mechanical Allodynia (Von Frey), Minimal Efficacious Dose (CFA-induced arthritis [6]): 3 mg/kg; Difference in Weight Bearing, Minimal Efficacious Dose (CFA-induced arthritis [7]): 3 mg/kg
 | 77% | 57% | CCn1ncc2ccc(-c3cc(CO[C@](C)(CC)C(=O)O)nn3-c3ccccc3N3CCCC3)cc21 [Example 268, (2R)-2-([5-(1-ethyl-1H-indazol-6-yl)-1-[2-(pyrrolidin-1-yl)phenyl]-1H-pyrazol-3-yl]methoxy)-2-methylbutanoic acid] | Mechanical Allodynia (Von Frey), Minimal Efficacious Dose (CFA-induced arthritis [6]): 1 mg/kg; Difference in Weight Bearing, Minimal Efficacious Dose (CFA-induced arthritis [7]): 1 mg/kg
 | 100% |  | CCn1ncc2ccc(-c3cc(CO[C@](C)(CC)C(=O)O)nn3-c3ccccc3N3CCC3)cc21 [Example 269, (2R)-2-([1-[2-(Azetidin-1-yl)phenyl]-5-(1-ethyl-1H-indazol-6-yl)-1H-pyrazol-3-yl]methoxy)-2-methylbutanoic acid] | 
